Data set [1] can be described thus: Drug degradation assessed as methyl N-[(E)-8-[4-[(2E)-hexa-2,5-dienyl]-1,3-thiazol-2-yl]-3,7-dihydroxy-3-(hydroxymethyl)-8-methylnon-4-enyl]carbamate metabolite formation by measuring relative abundance measured after preserving compound in amber vial containing methanol followed by drying using N2 stream for 24 hrs at room temperature by LC-MS-TIC analysis. In kind it is physicochemical.

Data set [2] can be described thus: Stability of compound assessed as shelf life measured after preserving compound in amber vial containing 95% CH3CN and 5% H2O followed by drying using N2 stream and later punged-with argon followed by exposure to 4 degC for 24 hrs. In kind it is physicochemical.
A short description of data set [3]: Drug degradation assessed as methyl N-[(E)-8-[4-[(2E)-hexa-2,5-dienyl]-1,3-thiazol-2-yl]-3,7-dihydroxy-3-(hydroxymethyl)-8-methylnon-4-enyl]carbamate metabolite formation by measuring maximum absorbance units measured after preserving compound in amber vial containing 95% CH3CN and 5% H2O followed by drying using N2 stream followed by exposure to direct light for 24 hrs by ultraviolet-photoiodide array detection method. In kind it is physicochemical.

The next data set has as its system PANC-1. Nature of the data set: Cytotoxicity against human PANC1 cells assessed as reduction in cell viability incubated for 3 days by tryphan blue dye based assay. In kind it is functional. The settings on record: PANC-1, 72 h.
The nature of data set [4]: Drug degradation assessed as methyl N-[(E)-8-[4-[(2E)-hexa-2,5-dienyl]-1,3-thiazol-2-yl]-3,7-dihydroxy-3-(hydroxymethyl)-8-methylnon-4-enyl]carbamate metabolite formation by measuring maximum absorbance units measured after preserving compound in amber vial containing 95% CH3CN and 5% H2O followed by drying using N2 stream and later punged-with argon followed by exposure to 4 degC for 24 hrs by ultraviolet-photoiodide array detection method. Type of data set: physicochemical.

The test system of another data set is HCT-116. The data set is described as follows: Cytotoxicity against human HCT116 cells assessed as reduction in cell viability incubated for 3 days by tryphan blue dye based assay. Type of data set: functional. The settings on record: HCT-116, 72 h.
A short description of data set [5]: Drug degradation assessed as methyl N-[(E)-8-[4-[(2E)-hexa-2,5-dienyl]-1,3-thiazol-2-yl]-3,7-dihydroxy-3-(hydroxymethyl)-8-methylnon-4-enyl]carbamate metabolite formation by measuring maximum absorbance units measured after preserving compound in amber vial containing methanol followed by drying using N2 stream for 24 hrs at room temperature by ultraviolet-photoiodide array detection method. Type of data set: physicochemical.

The next data set concerns HepG2. Nature of the data set: Cytotoxicity against human HepG2 cells assessed as reduction in cell viability incubated for 3 days by tryphan blue dye based assay. In kind it is functional. The note with it: HepG2, 72 h.
Data set [6] can be described thus: Drug degradation assessed as methyl N-[(E)-8-[4-[(2E)-hexa-2,5-dienyl]-1,3-thiazol-2-yl]-3,7-dihydroxy-3-(hydroxymethyl)-8-methylnon-4-enyl]carbamate metabolite formation by measuring relative abundance measured after preserving compound in amber vial containing 95% CH3CN and 5% H2O followed by drying using N2 stream and later punged-with argon followed by exposure to 4 degC for 24 hrs by LC-MS-TIC analysis. In kind it is physicochemical.

Data set [7] can be described thus: Drug degradation assessed as methyl N-[(E)-8-[4-[(2E)-hexa-2,5-dienyl]-1,3-thiazol-2-yl]-3,7-dihydroxy-3-(hydroxymethyl)-8-methylnon-4-enyl]carbamate metabolite formation by measuring maximum absorbance units measured after preserving compound in amber vial containing 95% CH3CN and 5% H2O followed by drying using N2 stream and later punged-with argon in dark desiccator under vacuum for 24 hrs by ultraviolet-photoiodide array detection method. Type of data set: physicochemical.

A short description of data set [8]: Drug degradation assessed as methyl N-[(E)-8-[4-[(2E)-hexa-2,5-dienyl]-1,3-thiazol-2-yl]-3,7-dihydroxy-3-(hydroxymethyl)-8-methylnon-4-enyl]carbamate metabolite formation by measuring relative abundance measured after preserving compound in amber vial containing methanol followed by drying using air stream for 24 hrs at room temperature by LC-MS-TIC analysis. In kind it is physicochemical.

The nature of data set [9]: Drug degradation assessed as methyl N-[(E)-8-[4-[(2E)-hexa-2,5-dienyl]-1,3-thiazol-2-yl]-3,7-dihydroxy-3-(hydroxymethyl)-8-methylnon-4-enyl]carbamate metabolite formation by measuring maximum absorbance units measured after preserving compound in amber vial containing methanol followed by drying using air stream for 24 hrs at room temperature by ultraviolet-photoiodide array detection method. Type of data set: physicochemical.

A short description of data set [10]: Drug degradation assessed as methyl N-[(E)-8-[4-[(2E)-hexa-2,5-dienyl]-1,3-thiazol-2-yl]-3,7-dihydroxy-3-(hydroxymethyl)-8-methylnon-4-enyl]carbamate metabolite formation by relative abundance measured after preserving compound in amber vial containing 95% CH3CN and 5% H2O followed by drying using N2 stream and later punged-with argon in dark desiccator under vacuum for 24 hrs by LC-MS-TIC analysis. Type of data set: physicochemical.

A short description of data set [11]: Drug degradation assessed as methyl N-[(E)-8-[4-[(2E)-hexa-2,5-dienyl]-1,3-thiazol-2-yl]-3,7-dihydroxy-3-(hydroxymethyl)-8-methylnon-4-enyl]carbamate metabolite formation by measuring relative abundance measured after preserving compound in amber vial containing 95% CH3CN and 5% H2O followed by drying using N2 stream followed by exposure to direct light for 24 hrs by LC-MS-TIC analysis. In kind it is physicochemical.

A short description of data set [12]: Stability of compound assessed as shelf life measured after preserving compound in amber vial containing 95% CH3CN and 5% H2O followed by drying using N2 stream and later punged-with argon in dark desiccator under vacuum for 24 hrs. In kind it is physicochemical.
Data set [13] can be described thus: Stability of compound in benzene-d6 by 1H-NMR analysis. Type of data set: physicochemical.

In the case of `C=CC/C=C/Cc1csc(C(C)(C)[C@H](O)C/C=C\C(=C)CCNC(=O)OC)n1`, the Drug degradation was found to be 45% in data set [1]; 280000 a.u in [3]; 500000 a.u in data set [4]; 500000 a.u in data set [5]; 20% in data set [6]; 500000 a.u in data set [7]. For the same compound, the Drug degradation in data set [8] is 45%; in data set [9], 500000 a.u; in data set [10] it was 20%; in [11], 60%. For the same compound, the Stability in data set [2] and in [12] was 3 to 6 weeks throughout. In addition, the IC50 (usually the point on the concentration scale where inhibition reaches its midpoint) in the data set on PANC-1 stood at 0.16 nM; with HCT-116, 0.35 nM; in the data set on HepG2, 0.27 nM.
Take `C=CC/C=C\Cc1csc(C(C)(C)C(=O)C/C=C\C(=C)CCNC(=O)OC)n1`: in the data set with PANC-1, the IC50 is 2000 nM.
On to `C=CC/C=C\Cc1csc(C(C)(C)[C@H](O)C/C=C/C(O)(CO)CCNC(=O)OC)n1` (stereo partly specified), for which the IC50 with HCT-116 was above 1000 nM.
With `C=CC/C=C\Cc1csc(C(C)(C)C(O)CC2C=C(CCNC(=O)OC)CN(c3ccccc3)O2)n1` (single isomer, unassigned), the IC50 in the data set with PANC-1 was above 1000 nM.
Take `C=CC/C=C/Cc1csc(C(C)(C)[C@@H](C/C=C\C(=C)CCNC(=O)OC)OC(C)=O)n1`: in data set [13], the Stability result is listed as “>= 6 months”. Further, the IC50 in the data set on PANC-1 is 1.3 nM.
Regarding `C=CC/C=C\Cc1csc(C(C)(C)[C@H](O)CC2C=C(CCNC(=O)OC)CON2c2ccccc2)n1` (stereo partly specified), the IC50 in the data set on PANC-1 was above 1000 nM.

For the origin of these results see ChEMBL document CHEMBL4373748, “Reinvestigation of Mycothiazole Reveals the Penta-2,4-dien-1-ol Residue Imparts Picomolar Potency and 8S Configuration” (ACS Med Chem Lett, 2020).
